# Test results from patent US7687079B2, “Methods of treating ileus” (priority 2002, dated 2010).
# Entries after “also recorded” stand apart in the source; their conditions may differ.
# What was measured:
# [1] = test system: pigs with ileus induced by mild manipulation of the small intestine; assay: intestinal transit of steel ball bearings after IM in pig model; format: in vivo; details: CO 250 ppm for 3 hr prior to IM
# Experimental: Similar experiments were performed in a pig model. Ileus was induced by mild manipulation of the small intestine (IM). Pigs were exposed to CO (250 ppm) or air (controls) for a period of 3 hr prior to IM. Gastrointestinal function was assessed in vivo by observing intestinal transit of steel ball bearings placed within the small intestine.
# [2] = test system: mice with ileus induced by manipulation of the small intestine; assay: Example 3 intestinal transit, geometric center after IM; format: in vivo, mouse; details: IM+CO mice (250 and 500 ppm), 24 hours
# Experimental: (§1) Ileus was induced in mice by gentle manipulation of the small intestine. An incision was made to expose the abdominal cavity of the mouse, and bowel manipulation was performed by gentle poking and prodding of the small intestine (see, e.g., Schwarz et al., Gastroenterology 121(6):1354-1357 (2001)). The incision was subsequently closed, and analyses were performed 24 hours later. Mice were exposed to CO by inhalation (250 and 500 ppm) for 1 hour immediately prior to intestinal manipulation and during the entire 24-hour recovery period. Intestinal contractility was assessed in vitro by measuring circular muscle strip contractions in response to bethanechol (0.3-300 μM) and in vivo by determining intestinal transit from the distribution of orally-fed, fluorescein-labeled dextran and calculating geometric center as described in Example 1 above. HO-1 and IL-10 mRNA expression were determined by SYBR green real time RT-PCR from extracts of muscularis extemae, as described in Example 1 above. Release of nitric oxide (NO), a potent inhibitor of smooth muscle contractility, was estimated by measuring serum total nitrite, also described in Example 1 above.
# [3] = test system: MPO+ cells infiltrating the muscularis; assay: MPO histochemistry, leukocytes infiltrating intestinal muscularis after IM; format: in vivo, mouse; details: control and IM groups, 24 hr
# Experimental: MPO Histochemistry. Muscularis whole-mounts were prepared from the mid-jejunum collected 24 hr post-operatively. Segments of intestine were immersed in KRB in a Sylgard lined glass dish (Midland, Mich.) and pinned without stretching along the mesenteric border. The length and width of the segments were measured with a caliper. The jejunal segment was then opened along the mesenteric border and stretched to 150% of the length and 250% of the width. The mucosa was removed using fine forceps, and the remaining tissue fixed in 100% denatured ethanol for 30 min. […] Tissues were mounted on glass slides using Gel/Mount™ (Biomedia Corp., Foster City, Calif.), cover-slipped and inspected by light microscopy (Nikon Microphot-FXA, Fryer, Huntley, Ill.) at a magnification of 200×. PMN's were counted in five to six adjacent optical fields centered between the mesenteric and antimesenteric borders.
# PGE2 = PGE2 release from muscularis extracts (marker of COX-2 activity); format: in vivo, mouse; details: 24 hr
# Experimental: (§2) Protein and Nitric Oxide Determinations. The small bowel of control and mice subjected to intestinal manipulation was removed under sterile conditions, 4 or 24 hours post-operatively, leaving the colon in situ. The small intestine was transferred to a beaker containing chilled Hanks balanced salt solution (Sigma, St. Louis, Mo.) with 200 U/ml penicillin G and 200 μg/ml streptomycin (HBSS), the lumen flushed, and the tissue transferred to a second beaker of HBSS. The muscularis was harvested as described above for real time RT-PCR. Tissues were maintained under sterile conditions at 3 to 5° C. throughout the harvesting procedure. Isolated muscularis was blotted onto sterile gauze, and the wet weight determined to obtain aliquots of 40 to 60 mg. […]
# (§3) After the incubation period, the muscle tissue was pelleted, and aliquots of culture medium were frozen in liquid nitrogen and stored at −80° C. The levels of IL-6, IL-1β, PGE2, and IL-10 proteins secreted into the culture medium were determined using commercially available ELISA kits (R&D Systems, Minneapolis, Minn.) according to the manufacturer's instructions. […] Nitrate/nitrate levels were measured 24 hrs postoperatively using commercially available test kit (Oxford Biomedical Research, Oxford, Mich.) and quantified according to the manufacturer's directions. […]
# serum total nitrite = assay: Example 3 serum total nitrite; format: in vivo, mouse; details: IM-CO mice
# Experimental: as §1
# [4] = test system: total nitrite (NO production); assay: total nitrite release from muscularis extracts (index of iNOS activity); format: in vivo, mouse; details: IM + CO vs IM, 24 hours after surgery
# Experimental: as §2, §3
structure (smiles),measurement,setting,value
"[C-]#[O+] [CO, carbon monoxide]",intestinal transit,[1],improve
same,geometric center,[2],6.3±0.8
same,magnitude of the leukocyte infiltrate (MPO+ cells),[3],no effect
same,IM-induced PGE2 release,PGE2; IM + CO,no effect
same,PGE2 release,"PGE2; control muscularis, inhalation of CO alone",significant increases; also recorded: significantly increased
same,serum nitrite,serum total nitrite,6.0 ± 1.6 µM
same,surgically induced increase in nitrite release,[4],significantly inhibited
